# According to patent US11413266B2, “Use of cannabinoids in the treatment of inflammatory skin diseases” (GW Pharma Limited, priority 2015, dated 2022):
# Experiments:
# IL6 [1] = assay: UVB-induced IL6 mRNA expression in HaCaT keratinocytes, RT-qPCR; assay type: cell-based, human; conditions: 0.3 μM
# 2-AG = 2-AG levels in poly-(I:C)-stimulated HaCaT cells (LC-APCI-MS); assay type: cell-based, human; conditions: CBD 20 μM, 6 h
# Protocol: (§1) HaCaT cells were plated into six-well culture plates at a cell density of 9×10^5 cells per well, and after 1 day were stimulated with poly-(I:C) (100 μg·ml-1) and treated with CBD (20 μM) or vehicle, and incubated for 6 h at 37° C. in 5% CO2.
# (§2) After 6 h the resulting cells and supernatants were subjected to measurement of endocannabinoids such as N-arachidonoyl-ethanolamine (anandamide, AEA) and 2-arachidonoyl-glycerol (2-AG), and related N-acylethanolamines such as PEA and N oleoylethanolamine (OEA).
# (§3) Cells and supernatants were homogenized in a solution of chloroform/methanol/Tris-HCl 50 mM pH 7.4 (2:1:1 by vol.) containing 10 pmol of [2H]8-AEA, and 5 pmol of [2H]5-2-AG, [2H]4-PEA and [2H]2-OEA as internal deuterated standards. The lipid-containing organic phase was pre-purified by open-bed chromatography on silica gel, and fractions obtained by eluting the column with a solution of chloroform/methanol (90:10 by vol.) were analyzed by liquid chromatography-atmospheric pressure chemical ionization-mass spectrometry (LC-APCI-MS) by using a Shimadzu HPLC apparatus (LC-10ADVP) coupled to a Shimadzu (LCMS-2020) quadrupole MS via a Shimadzu APCI interface. […]
# AEA = AEA levels in poly-(I:C)-stimulated HaCaT cells (LC-APCI-MS); assay type: cell-based, human; conditions: CBD 20 μM, 6 h
# Protocol: as §1, §2, §3
# human sebocytes = conditions: Oláh et al., 2014; cited from earlier work
# MCP-2 = MCP-2 ELISA in supernatants of poly-(I:C)-stimulated HaCaT cells; assay type: cell-based, human
# [2] = test system: DNFB-induced allergic contact dermatitis (ACD); assay: DNFB-induced allergic contact dermatitis (ACD) in mice, ear swelling; assay type: in vivo
# Protocol: A total of 10 animals per group were used in the experiments described here.
# Briefly, DNFB was diluted in acetone/olive oil (4:1 by vol.) immediately before use and eight-ten week-old female C57BL/6J mice were sensitized by painting 50 μl of 0.2% DNFB on the shaved abdomen on two consecutive days. Then, mice were challenged by painting 10 μl of 0.3% DNFB on both sides of one ear on day 5.
# Ear swelling was measured 24, 48 and 72 h after this first challenge by measuring the difference in ear thickness between the unchallenged and the challenged ear using an engineer's micrometer. CBD (2.5, -5- and 10 mg·kg-1) was administered intraperitoneally (i.p.) on day 5 (the day of the first challenge with DNFB), 6 and, 7 after the initial sensitization with DNFB. CBD was dissolved in DMSO and Tween-20 1%.
# For the determination of MCP-2, endocannabinoids, PEA and OEA, group means were compared using the one-way ANOVA followed by Newman-Keuls multiple comparison test or the Student's t-test. For the determination of cell viability, group means were compared using the Student's t-test. All determinations were performed at least in triplicate. For the determination of ear thickness, group means were compared using the one-way ANOVA followed by Tukey-Kramer multiple comparison test (n=10).
# IL6 [3] = assay: UVB-induced IL6 release in HaCaT keratinocytes, ELISA; assay type: cell-based, human; conditions: 3 μM
# HaCaT cells = assay: Cell viability of HaCaT cells (MTT); assay type: cell-based, human; conditions: 20 μM
# Protocol: Cell viability was measured after 6 h in HaCaT cells treated with CBD (20 μM) or vehicle by using the 3-(4,5-dimethylthiazol-2yl)-2,5-diphenyl tetrazolium bromide (MTT) colorimetric assay.
# Briefly, after 6 h HaCaT cells were incubated with MTT (5 mg·ml-1) for 3 h at 37° C. in 5% CO2. After 3 h HaCaT cells were lysed with DMSO and incubated for 6 h at 37° C. in 5% CO2.
# Absorbance was measured at 630 nm. Results are expressed as % of cell viability, where optical density values from vehicle-treated cells were defined as 100% of cell viability.
# OEA = OEA levels in poly-(I:C)-stimulated HaCaT cells (LC-APCI-MS); assay type: cell-based, human; conditions: CBD 20 μM, 6 h
# Protocol: as §1, §2, §3
# [4] = test system: human epidermal keratinocytes; assay: Summary score, TLR3-induced inflammation model (microbial infection-induced dermatitis); assay type: cell-based; conditions: sum of +1 anti-inflammatory, 0 no effect, −1 pro-inflammatory, Table 1
# IL8 [5] = assay: PolyIC-induced IL8 release in NHEK keratinocytes, ELISA; assay type: cell-based, human; conditions: NHEKs; concentration not singled out (0.3 and 3 μM tested)
# [6] = test system: human epidermal keratinocytes; assay: Summary score, UVB-induced inflammation model (solar dermatitis); assay type: cell-based; conditions: sum of +1 anti-inflammatory, 0 no effect, −1 pro-inflammatory, Table 2
# IL8 [7] = assay: UVB-induced IL8 mRNA expression in HaCaT keratinocytes, RT-qPCR; assay type: cell-based, human
# HPV-Ker keratinocytes = assay: Summary score, SEB/TSLP-induced inflammation model (atopic dermatitis); assay type: cell-based, human; conditions: sum of +1 anti-inflammatory, 0 no effect, −1 pro-inflammatory, Table 3
# IL8 [8] = assay: UVB-induced IL8 release in HaCaT keratinocytes, ELISA; assay type: cell-based, human; conditions: 0.3 μM
# IL6 [9] = assay: PolyIC-induced IL6 release in NHEK keratinocytes, ELISA; assay type: cell-based, human; conditions: NHEKs; concentration not singled out (0.3 and 3 μM tested)
smiles,measurement,setting,value
"C=C(C)[C@@H]1CCC(C)=C[C@H]1c1c(O)cc(CCCCC)cc1O [CBD, Cannabidiol]",UVB-upregulated IL6 (RT-qPCR),IL6 [1],anti-inflammatory effects
same,2-AG levels,2-AG,No consistent effect
same,"AEA levels, increase compared to poly-(I:C)-stimulated HaCaT cells",AEA,−2.7 fold
same,"AEA levels, increase compared to vehicle-treated HaCaT cells",AEA,−8 fold
same,anti-acne effects,human sebocytes,exerted anti-acne effects
same,MCP-2 production,"MCP-2; 20 μM, poly-(I:C)-stimulated HaCaT, 6 h",maximum effect
same,MCP-2 protein levels,"MCP-2; 1, 5, 10 and 20 μM, poly-(I:C) 100 μg·ml-1, 6 h, vs vehicle",strong concentration-dependent reduction
same,MCP-2 protein levels,"MCP-2; compound alone, 20 μM, absence of poly-(I:C), vs vehicle-treated HaCaT, data not shown",no significant variation
same,potency in the inhibition of MCP-2 chemokine production relative to other phytocannabinoids tested,MCP-2; poly-(I:C)-stimulated keratinocytes,more potent
same,ear thickness,[2]; 2.5 mg·kg-1 i.p.,did not show any statistically significant effect
same,ear thickness,[2]; 5 mg·kg-1 i.p.,did not show any statistically significant effect
same,ear thickness,"[2]; 10 mg·kg-1 i.p. on day 5, 6 and 7, 48 h after first challenge, vs control mice",reduced
same,ear thickness,"[2]; 10 mg·kg-1 i.p. on day 5, 6 and 7, 72 h after first challenge, vs control mice",reduced
same,UVB-upregulated IL6 (ELISA),IL6 [3],anti-inflammatory effects
same,cytotoxicity,HaCaT cells,not cytotoxic
same,OEA levels,OEA,No consistent effect
same,SCORE,[4]; 0.3 μM,5
same,SCORE,[4]; 3 μM,8
same,PolyIC-induced elevated release of IL8,IL8 [5],dose-dependent suppression
same,SCORE,[6]; 0.3 μM,5
same,SCORE,[6]; 3 μM,1
same,UVB-upregulated IL8 (RT-qPCR),IL8 [7]; 0.3 μM,anti-inflammatory effects
same,UVB-upregulated IL8 (RT-qPCR),IL8 [7]; 3 μM,pro-inflammatory effects
same,SCORE,HPV-Ker keratinocytes; 0.3 μM,−1
same,SCORE,HPV-Ker keratinocytes; 3 μM,1
same,UVB-upregulated IL8 (ELISA),IL8 [8],anti-inflammatory effects
same,PolyIC-induced elevated release of IL6,IL6 [9],dose-dependent suppression
